Here are results for 1 compound from BindingDB's records for patent US11046658 (Incyte, 2021).

Each structure is given as a SMILES string.

Experiment [1] concerns the target Phosphatidylinositol 4,5-bisphosphate 3-kinase catalytic subunit gamma isoform (Homo sapiens, UniProt P48736). In words: PI3K-gamma Scintillation Proximity Assay. The source says: (§1) Materials: [γ-33P]ATP (10 mCi/mL) and Wheat Germ Agglutinin (WGA) YSi SPA Scintillation Beads was purchased from Perkin Elmer (Waltham, Mass.). Lipid kinase substrate, D-myo-Phosphatidylinositol 4,5-bisphosphate (PtdIns(4,5)P2)D (+)-sn-1,2-di-O-octanoylglyceryl, 3-O-phospho linked (PIP2), CAS 204858-53-7, was purchased from Echelon Biosciences (Salt Lake City, Utah). PI3Kγ (p110γ) Recombinant Human Protein was purchased from Life technology (Grand Island, N.Y.). ATP, MgCl2, DTT, EDTA, MOPS and CHAPS were purchased from Sigma Aldrich (St. Louis, Mo.).The kinase reaction was conducted in polystyrene 384-well Greiner Bio-one white plate from Thermo Fisher Scientific in a final volume of 25 μL. Inhibitors were first diluted serially in DMSO and added to the plate wells before the addition of other reaction components. The final concentration of DMSO in the assay was 2%. The PI3Kγ assay was carried out at room temperature in 20 mM MOPS, pH 6.7, 10 mM MgCl2, 5 mM DTT and CHAPS 0.03%. Reactions were initiated by the addition of ATP, the final reaction mixture consisted of 20 μM PIP2, 2 μM ATP, 0.5 μCi [γ-33P] ATP, 13 nM PI3Kγ. […] After the plate sealing, plates were shaken overnight at room temperature and centrifuged at 1500 rpm for 10 min, the radioactivity of the product was determined by scintillation counting on Topcount (Perkin-Elmer). […]
(In general: SPA uses beads or plates that emit light when radiolabelled molecules are held near them.)

In experiment [2] the target is T1, Phosphatidylinositol 4,5-bisphosphate 3-kinase catalytic subunit delta isoform (Homo sapiens, UniProt O00329).
T1 sequence (O00329 whole entry): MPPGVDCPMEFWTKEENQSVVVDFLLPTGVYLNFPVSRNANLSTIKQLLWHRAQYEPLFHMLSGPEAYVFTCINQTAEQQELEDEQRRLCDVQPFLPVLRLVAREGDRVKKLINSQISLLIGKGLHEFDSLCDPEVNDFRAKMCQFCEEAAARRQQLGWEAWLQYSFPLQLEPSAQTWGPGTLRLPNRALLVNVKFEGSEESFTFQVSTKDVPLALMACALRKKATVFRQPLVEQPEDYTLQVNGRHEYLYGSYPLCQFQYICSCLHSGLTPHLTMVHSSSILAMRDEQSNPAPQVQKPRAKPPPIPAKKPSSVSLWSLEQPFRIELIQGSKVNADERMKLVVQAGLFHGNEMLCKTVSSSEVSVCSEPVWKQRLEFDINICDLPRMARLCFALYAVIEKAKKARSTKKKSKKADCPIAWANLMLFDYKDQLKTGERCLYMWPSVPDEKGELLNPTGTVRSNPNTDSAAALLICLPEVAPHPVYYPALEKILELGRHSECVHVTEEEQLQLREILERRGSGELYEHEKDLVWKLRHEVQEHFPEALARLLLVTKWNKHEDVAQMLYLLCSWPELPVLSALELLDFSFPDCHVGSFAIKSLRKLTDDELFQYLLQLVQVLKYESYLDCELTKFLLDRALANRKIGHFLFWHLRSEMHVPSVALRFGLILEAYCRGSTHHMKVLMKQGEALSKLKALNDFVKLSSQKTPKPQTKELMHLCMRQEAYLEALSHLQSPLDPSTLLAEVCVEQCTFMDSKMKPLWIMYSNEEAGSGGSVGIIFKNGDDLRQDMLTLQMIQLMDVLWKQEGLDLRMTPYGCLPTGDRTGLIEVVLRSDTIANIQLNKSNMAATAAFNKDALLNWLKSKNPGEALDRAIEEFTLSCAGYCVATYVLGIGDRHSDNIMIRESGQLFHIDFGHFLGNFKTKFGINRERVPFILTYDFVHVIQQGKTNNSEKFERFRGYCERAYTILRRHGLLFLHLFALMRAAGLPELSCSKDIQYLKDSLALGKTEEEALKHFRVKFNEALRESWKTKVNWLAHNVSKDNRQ
In words: PI3Kdelta Scintillation Proximity Assay.
Text: as §1, with “PI3Kδ (p110δ/p85α)” for “PI3Kγ (p110γ)”, “Eurofins (St Charles, Mo.).” for “Life technology (Grand Island, N.Y.).”, “PI3Kδ” for “PI3Kγ”, “3.4” for “13”, “PI3Kδ.” for “PI3Kγ.”, “(PerkinElmer).” for “(Perkin-Elmer).”

Chain of Phosphatidylinositol 4,5-bisphosphate 3-kinase catalytic subunit gamma isoform (P48736 whole entry, canonical isoform): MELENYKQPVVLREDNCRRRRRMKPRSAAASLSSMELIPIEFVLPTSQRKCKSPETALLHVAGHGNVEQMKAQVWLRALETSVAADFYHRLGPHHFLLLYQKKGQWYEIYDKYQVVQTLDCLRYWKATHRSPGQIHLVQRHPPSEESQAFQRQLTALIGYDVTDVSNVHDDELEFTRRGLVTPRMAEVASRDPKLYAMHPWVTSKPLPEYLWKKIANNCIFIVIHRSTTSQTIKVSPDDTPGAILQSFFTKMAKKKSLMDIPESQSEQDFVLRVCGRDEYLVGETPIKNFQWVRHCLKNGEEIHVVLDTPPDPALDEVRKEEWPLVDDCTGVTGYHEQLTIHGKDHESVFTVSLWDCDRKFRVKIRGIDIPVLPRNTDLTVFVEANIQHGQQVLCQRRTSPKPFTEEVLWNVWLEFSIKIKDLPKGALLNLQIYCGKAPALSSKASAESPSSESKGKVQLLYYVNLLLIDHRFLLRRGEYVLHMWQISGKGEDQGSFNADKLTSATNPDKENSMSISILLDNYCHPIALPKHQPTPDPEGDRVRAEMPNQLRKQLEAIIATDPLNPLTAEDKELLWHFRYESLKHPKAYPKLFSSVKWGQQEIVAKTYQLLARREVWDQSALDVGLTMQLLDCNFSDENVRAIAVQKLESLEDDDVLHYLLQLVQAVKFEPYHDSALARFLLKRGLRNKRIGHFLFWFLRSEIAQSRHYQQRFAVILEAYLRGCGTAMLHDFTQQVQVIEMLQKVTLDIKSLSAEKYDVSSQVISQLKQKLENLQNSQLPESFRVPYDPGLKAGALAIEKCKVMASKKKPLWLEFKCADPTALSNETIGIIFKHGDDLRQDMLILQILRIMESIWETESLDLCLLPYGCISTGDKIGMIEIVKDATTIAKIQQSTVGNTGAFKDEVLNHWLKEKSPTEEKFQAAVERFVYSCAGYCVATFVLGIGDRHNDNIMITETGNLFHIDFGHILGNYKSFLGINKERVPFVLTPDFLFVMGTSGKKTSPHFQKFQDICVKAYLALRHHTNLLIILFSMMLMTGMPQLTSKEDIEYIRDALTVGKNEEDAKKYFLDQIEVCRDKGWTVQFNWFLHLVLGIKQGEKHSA

`C#Cc1ccccc1N1CCN(c2nc(-c3cc(C(O)(C(N)=O)C(F)(F)F)ccc3C)cnc2N)CC1` (configuration not stated) [US11046658, Example 122]: the IC50 in experiment [1] and in experiment [2] was < 100 nM in each case.

What is called IC50 is the concentration that gives 50% inhibition.
